Assay results published in ChEMBL document CHEMBL4118101 (Bioorg Med Chem, 2018).
Converted amounts (≈) assume the structure as drawn. The source made the active and inactive calls. No cut-off for these calls is given here.

Columns and labels:
[1] = Hemolytic activity in mouse RBC at 62.5 ug/ml after 1 hr relative to control; assay type: ADME, cell-based, Erythrocyte; details: mouse red blood cells (erythrocytes), read-out: Activity
Cryptococcus neoformans [2] = assay: Antifungal activity against Cryptococcus neoformans isolate CN2 measured after 48 hrs by CLSI M27-A3 protocol based method; assay type: functional; details: Cryptococcus neoformans, isolate CN2, 48 h; read-out: MIC
Candida albicans [3] = assay: Antifungal activity against Candida albicans ATCC 10231 measured after 48 hrs by CLSI M27-A3 protocol based method; assay type: functional; details: ATCC 10231, 48 h
Candida albicans [4] = assay: Antifungal activity against Candida albicans ATCC 64124 measured after 48 hrs by CLSI M27-A3 protocol based method; assay type: functional; details: Candida albicans, ATCC 64124, 48 h; read-out: MIC
Candida albicans [5] = assay: Antifungal activity against fluconazole/ITC-susceptible Candida albicans ATCC MYA-2876 measured after 48 hrs by CLSI M27-A3 protocol based method; assay type: functional; details: Candida albicans, ATCC MYA-2876, 48 h
Candida albicans [6] = assay: Antifungal activity against fluconazole/ITC-resistant Candida albicans ATCC 90819 measured after 48 hrs by CLSI M27-A3 protocol based method; assay type: functional; details: Candida albicans, ATCC 90819, 48 h; read-out: MIC
Candida albicans [7] = assay: Antifungal activity against fluconazole/ITC-susceptible Candida albicans ATCC MYA-2310 measured after 48 hrs by CLSI M27-A3 protocol based method; assay type: functional; details: Candida albicans, ATCC MYA-2310, 48 h; read-out: MIC
Candida albicans [8] = assay: Antifungal activity against fluconazole/ITC-resistant Candida albicans ATCC MYA-1237 measured after 48 hrs by CLSI M27-A3 protocol based method; assay type: functional; details: Candida albicans, ATCC MYA-1237, 48 h; read-out: MIC
Candida albicans [9] = assay: Antifungal activity against fluconazole/ITC-resistant Candida albicans ATCC MYA-1003 measured after 48 hrs by CLSI M27-A3 protocol based method; assay type: functional; details: Candida albicans, ATCC MYA-1003, 48 h; read-out: MIC
Nakaseomyces glabratus [10] = assay: Antifungal activity against Candida glabrata ATCC 2001 measured after 48 hrs by CLSI M27-A3 protocol based method; assay type: functional, CBS 138; details: Nakaseomyces glabratus, CBS 138, 48 h; read-out: MIC
Pichia kudriavzevii = assay: Antifungal activity against Candida krusei ATCC 6258 measured after 48 hrs by CLSI M27-A3 protocol based method; assay type: functional; details: Pichia kudriavzevii, ATCC 6258, 48 h
Candida parapsilosis [11] = assay: Antifungal activity against Candida parapsilosis ATCC 22019 measured after 48 hrs by CLSI M27-A3 protocol based method; assay type: functional; details: Lodderomyces parapsilosis, ATCC 22019, 48 h
Aspergillus nidulans [12] = assay: Antifungal activity against Aspergillus nidulans ATCC 38163 measured after 48 hrs by CLSI M38-A2 protocol based method; assay type: functional; details: ATCC 38163, 48 h
Aspergillus flavus = assay: Antifungal activity against Aspergillus flavus ATCC MYA-3631 measured after 48 hrs by CLSI M38-A2 protocol based method; assay type: functional; details: ATCC MYA-3631, 48 h
Aspergillus terreus = assay: Antifungal activity against Aspergillus terreus ATCC MYA-3633 measured after 48 hrs by CLSI M38-A2 protocol based method; assay type: functional; details: ATCC MYA-3633, 48 h
Nakaseomyces glabratus [13] = assay: Antifungal activity against Candida glabrata isolate CG1 measured after 48 hrs by CLSI M27-A3 protocol based method; assay type: functional; details: Nakaseomyces glabratus, 48 h; read-out: MIC
Nakaseomyces glabratus [14] = assay: Antifungal activity against Candida glabrata isolate CG2 measured after 48 hrs by CLSI M27-A3 protocol based method; assay type: functional; details: Nakaseomyces glabratus, isolate CG2, 48 h; read-out: MIC
Nakaseomyces glabratus [15] = assay: Antifungal activity against Candida glabrata isolate CG3 measured after 48 hrs by CLSI M27-A3 protocol based method; assay type: functional; details: Nakaseomyces glabratus, 48 h; read-out: MIC
Candida parapsilosis [16] = assay: Antifungal activity against Candida parapsilosis isolate CP1 measured after 48 hrs by CLSI M27-A3 protocol based method; assay type: functional; details: Lodderomyces parapsilosis, isolate CP1, 48 h
Candida parapsilosis [17] = assay: Antifungal activity against Candida parapsilosis isolate CP2 measured after 48 hrs by CLSI M27-A3 protocol based method; assay type: functional; details: Lodderomyces parapsilosis, isolate CP2, 48 h
Cryptococcus neoformans [18] = assay: Antifungal activity against Cryptococcus neoformans isolate CN1 measured after 48 hrs by CLSI M27-A3 protocol based method; assay type: functional; details: isolate CN1, 48 h
Cryptococcus neoformans [19] = assay: Antifungal activity against Cryptococcus neoformans isolate CN3 measured after 48 hrs by CLSI M27-A3 protocol based method; assay type: functional; details: Cryptococcus neoformans, isolate CN3, 48 h; read-out: MIC
Candida parapsilosis [20] = assay: Antifungal activity against Candida parapsilosis isolate CP3 measured after 48 hrs by CLSI M27-A3 protocol based method; assay type: functional; details: Lodderomyces parapsilosis, isolate CP3, 48 h
Candida albicans [21] = assay: Antifungal activity against Candida albicans ATCC 10231 measured after 48 hrs in presence of 10% FBS by CLSI M27-A3 protocol based method; assay type: functional; details: Candida albicans, ATCC 10231, 48 h
Candida parapsilosis [22] = assay: Antifungal activity against Candida parapsilosis ATCC 22019 measured after 48 hrs in presence of 10% FBS by CLSI M27-A3 protocol based method; assay type: functional; details: Lodderomyces parapsilosis, ATCC 22019, 48 h
Aspergillus nidulans [23] = assay: Antifungal activity against Aspergillus nidulans ATCC 38163 measured after 48 hrs in presence of 10% FBS by CLSI M38-A2 protocol based method; assay type: functional; details: ATCC 38163, 48 h
Candida albicans [24] = assay: Fungistatic activity against Candida albicans ATCC 10231 at 4 times MIC incubated for 24 hrs by time kill assay; assay type: functional, organism-based
Candida parapsilosis [25] = assay: Fungistatic activity against Candida parapsilosis ATCC 22019 up to 4 times MIC incubated for 24 hrs by time kill assay; assay type: functional, organism-based
[26] = Hemolytic activity in mouse RBC at 0.48 ug/ml after 1 hr relative to control; assay type: ADME, cell-based, Erythrocyte; details: mouse red blood cells (erythrocytes), read-out: Activity
[27] = Hemolytic activity in mouse RBC at […] ug/ml after 1 hr relative to control; assay type: ADME, cell-based, Erythrocyte; details: mouse red blood cells (erythrocytes), read-out: Activity
[28] = Hemolytic activity in mouse RBC at 1.95 ug/ml after 1 hr relative to control; assay type: ADME, cell-based, Erythrocyte; details: mouse red blood cells (erythrocytes), at 1.95 µg/mL, read-out: Activity
[29] = Hemolytic activity in mouse RBC at 3.9 ug/ml after 1 hr relative to control; assay type: ADME, cell-based, Erythrocyte; details: mouse red blood cells (erythrocytes), read-out: Activity
[30] = Hemolytic activity in mouse RBC at 7.8 ug/ml after 1 hr relative to control; assay type: ADME, cell-based, Erythrocyte; details: mouse red blood cells (erythrocytes), read-out: Activity
[31] = Hemolytic activity in mouse RBC at 31.3 ug/ml after 1 hr relative to control; assay type: ADME, cell-based, Erythrocyte; details: mouse red blood cells (erythrocytes), at 31.3 µg/mL, read-out: Activity
HEK293 = assay: Cytotoxicity against HEK293 cells at 7.8 ug/ml after 24 hrs by resazurin based assay; assay type: cell-based; details: human, hek293, 24 h
Candida albicans [32] = assay: Induction of membrane permeabilization in Candida albicans ATCC 10231 assessed as membrane disruption at 4 times MIC after 1 hr by propidium iodide staining based fluorescence microscopy; assay type: functional, organism-based

`CCCCCCCCCCNCC(O)(Cn1cncn1)c1ccc(F)cc1F` (configuration not stated) showed a hemolysis at 1 h, 62.5 ug/ml [1] of 100%, an MIC (Cryptococcus neoformans [2]) of 0.61 µM (≈ 0.241 µg/mL) and an MIC (Candida albicans [3]) of 1.2 µM (≈ 0.473 µg/mL). It also gave an MIC (Candida albicans [4]) of 39.5 µM (≈ 15.6 µg/mL), an MIC (Candida albicans [5]) of 9.9 µM (≈ 3.91 µg/mL) and an MIC (Candida albicans [6]) of 9.9 µM (≈ 3.91 µg/mL). It also gave an MIC (Candida albicans [7]) of 19.8 µM (≈ 7.81 µg/mL), an MIC (Candida albicans [8]) of 19.8 µM (≈ 7.81 µg/mL) and an MIC (Candida albicans [9]) of 19.8 µM (≈ 7.81 µg/mL). It also gave an MIC (Nakaseomyces glabratus [10]) of 1.2 to 2.5 µM (≈ 0.473 to 0.986 µg/mL), an MIC (Pichia kudriavzevii) of 1.2 µM (≈ 0.473 µg/mL) and an MIC (Candida parapsilosis [11]) of 0.08 µM (≈ 0.0316 µg/mL). For the same compound, the MIC (Aspergillus nidulans [12]) was 2.5 µM (≈ 0.986 µg/mL), the MIC (Aspergillus flavus) was 19.8 µM (≈ 7.81 µg/mL) and the MIC (Aspergillus terreus) was 9.9 µM (≈ 3.91 µg/mL). The MIC (Nakaseomyces glabratus [13]) was 4.9 µM (≈ 1.93 µg/mL), the MIC (Nakaseomyces glabratus [14]) was 1.2 µM (≈ 0.473 µg/mL) and the MIC (Nakaseomyces glabratus [15]) was 9.9 µM (≈ 3.91 µg/mL). For the same compound, the MIC (Candida parapsilosis [16]) was 0.15 µM (≈ 0.0592 µg/mL), the MIC (Candida parapsilosis [17]) was 0.3 µM (≈ 0.118 µg/mL) and the MIC (Cryptococcus neoformans [18]) was 0.61 µM (≈ 0.241 µg/mL). The MIC (Cryptococcus neoformans [19]) was 1.2 µM (≈ 0.473 µg/mL), the MIC (Candida parapsilosis [20]) was 0.61 µM (≈ 0.241 µg/mL) and the MIC (Candida albicans [21]) was 0.48 µg/mL. For the same compound, the MIC (Candida parapsilosis [22]) was 0.06 µg/mL, the MIC (Aspergillus nidulans [23]) was 1.95 µg/mL and the Activity (Candida albicans [24]) was “Active”. The Activity (Candida parapsilosis [25]) was “Active”, the hemolysis at 1 h, 0.48 ug/ml [26] was 0% and the hemolysis at 1 h, 0.975 ug/ml [27] was 0%. It also gave a hemolysis at 1 h, 15.6 ug/ml [27] of 33%, a hemolysis at 1 h, 1.95 ug/ml [28] of 2% and a hemolysis at 1 h, 3.9 ug/ml [29] of 3%. The hemolysis at 1 h, 7.8 ug/ml [30] was 8%, the hemolysis at 1 h, 31.3 ug/ml [31] was 92% and the Activity (HEK293) was “Non-Toxic”. For the same compound, the Activity (Candida albicans [32]) was “inactive”.
